Experimental data from patent publication US20120252773A1, “Method and composition for inhibiting cell proliferation and angiogenesis” (priority 2005, published 2012).

Key:
[1] = target: T1, Human recombinant estrogen receptor-β (ER-β) (Homo sapiens, UniProt Q92731); assay: Estrogen receptor binding assay, 3H-17β-estradiol displacement, ER-β; details: 4° C. overnight
T1 construct: purchased PanVera Corporation (Madison, Wis.)
Method: Human recombinant estrogen receptor-α (ER-α) and estrogen receptor-β (ER-β) were obtained from PanVera Corporation (Madison, Wis.) to conduct the binding assay. To measure the binding affinity of (2), various concentrations of (2) or 17β-estradiol were incubated with either ER-α or ER-β receptor in the presence of a fixed amount of ^3H-17β-estradiol at 4° C. overnight. At the end of the incubation, the free- and bound-3H-estradiol were separated following the instructions provided by the manufacturer using hydroxylapatite.

[2] = system: HIF-1α protein in MDA-MB-231 human breast carcinoma cells; assay: HIF-1α protein expression by immunoblotting, MDA-MB-231 cells; assay type: cell-based; details: MDA-MB-231, normoxic and anoxic
Method: Hypoxia experiments were performed in either of two ways. To produce a very low ambient oxygen concentration (effectively anoxia), we used a protocol in which cells were incubated in a 5% CO2-air atmosphere at 37° C. overnight and then placed in aluminum gas-exchange chambers maintained at 37° C. (Laderoute K R et al. Mol Cell Biol 22: 2515-2523, (2002); Laderoute K R et al. Mol Cell Biol 24: 4128-4137, (2004)). The chambers containing the cells were then placed in a 37° C. circulating water bath and the original atmosphere was repeatedly exchanged with 5% CO2-95% N2 using a manifold equipped with a vacuum pump and a gas cylinder. Atmospheric oxygen partial pressure (pO2) values of less than or equal to 0.01% (relative to air at pO2 of about 21%) can be achieved inside the chambers using this system. Following various hypoxic exposures, the chambers were opened an anaerobic glove box (Bactron X, Sheldon Manufacturing Inc., Cornelius, Oreg.; attached to a cylinder containing 5% CO2-95% N2) to prepare cell lysates without significant reoxygenation. All manipulations of hypoxic cells were performed in the anaerobic glove box. Atmospheric oxygen levels in both the chambers and the glove box have been measured and calibrated using a polarographic oxygen electrode (Oxygen Sensors, Inc., Norristown, Pa.). […]
We used immunoblotting to evaluate the experiments. […] After spinning at 9,000×g for 5 min at 4° C., the protein concentrations of the supernatants were determined by using a bicinchoninic acid assay (Pierce Biotechnology). […] Primary antibody binding was detected and visualized by using the ECL Plus Western Blotting Detection System (Amersham Pharmacia Biotech) according to the supplier's instructions. HIF-1α protein was detected by using an anti-HIF-1α monoclonal antibody (Novus Biologicals, Cat. No. NB100-123; diluted 1:500) and a horseradish peroxidase-conjugated anti-mouse IgG secondary antibody (Santa Cruz Biotechnology, Cat. No. sc-2062; diluted 1:20,000). […]

[3] = system: A549 human non small cell lung cancer tumors; assay: A549 NSCLC nude mouse xenograft model, tumor growth; assay type: in vivo; details: 30 days
Method: The xenograft model was conducted using 8 weeks old female athymic nude mice supplied by Charles River Laboratories. After 4 days of quarantine, A549 human non small cell lung cancer cells (3×10^6 cells/mouse) were subcutaneously implanted in the right flanks of mice in a 100 μl of Matrigel/phosphate buffered saline mixture (1:1). Animals were observed daily for tumor growth. When tumors became palpable, we began to measure the tumors using the formula V=W×L×H×π/6, where W and L represent the shorter and longer diameters of the tumor, H the height of the tumor. When tumor volumes reached approximately 50 mm^3, animals were randomized into control and treatment groups of 10 mice each based on tumor volumes. Only the mice with tumor volumes closest to the mean value were used. On the day of randomization, animals began to receive drug treatment. Compound (2) and Tarceva (Erlotinib) were orally dosed via gavage once daily. Cisplatin and Paclitaxel were dosed via intraperitoneal injection once weekly.
After initiation of drug treatment, tumor volumes were measured twice weekly and body weights once weekly. The study was carried out for 30 days and unscheduled sacrifices were performed on animals with tumor volumes greater than 1500 mm^3 or tumors developing ulceration or loss of 20% of their original body weights. […]

DU-145 cells = assay: Cell cycle analysis by flow cytometry in DU-145 cells; assay type: cell-based, human; details: DU-145, 10 μM
Method: DU-145 cells were treated with 10 μM of (2) for 6, 24, 48, 72, or 96 h. At the end of each time period, cells were hypotonically lysed in DNA staining solution (0.5 mg/ml propidium iodide, 0.1% sodium citrate, and 0.05% Triton X-100). The stained cells were analyzed by flow cytometry (FACS) using software provided by Phoenix Flow System.

T1 sequence (Q92731 whole entry): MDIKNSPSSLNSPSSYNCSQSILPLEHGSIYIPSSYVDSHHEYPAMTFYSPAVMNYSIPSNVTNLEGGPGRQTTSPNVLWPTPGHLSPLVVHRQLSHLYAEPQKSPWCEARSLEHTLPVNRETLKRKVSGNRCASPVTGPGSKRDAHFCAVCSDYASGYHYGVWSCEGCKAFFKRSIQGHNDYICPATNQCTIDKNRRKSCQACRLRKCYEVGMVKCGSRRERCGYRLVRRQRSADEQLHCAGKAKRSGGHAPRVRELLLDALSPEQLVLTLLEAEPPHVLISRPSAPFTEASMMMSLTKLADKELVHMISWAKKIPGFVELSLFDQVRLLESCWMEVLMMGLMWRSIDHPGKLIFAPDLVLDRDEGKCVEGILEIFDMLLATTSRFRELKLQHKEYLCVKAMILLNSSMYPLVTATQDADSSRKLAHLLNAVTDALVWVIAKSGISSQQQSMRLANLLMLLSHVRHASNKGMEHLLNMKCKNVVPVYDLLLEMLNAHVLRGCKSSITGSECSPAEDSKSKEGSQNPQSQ

SMILES: C[C@@H]1Cc2cc(O)ccc2C2CCC3(C)/C(=C/COCCN(C)C)CCC3C21 (stereo partly drawn) [Compound (2), (E)-3-Hydroxy-7α-methyl-21-[(2-dimethylamino)ethoxy]-19-norpregna-1,3,5(10),17(20)-tetraene]
- binding affinity (relative to non-radiolabeled estradiol, 50% displacement of 3H-estradiol) [1]: 64
- HIF-1α protein expression [2]: potent inhibitor
- growth rate of A549 tumors ([3]; 10 mg/kg oral once daily): drastically reduced the growth rate
- growth rate of A549 tumors ([3]; 20 mg/kg oral once daily): drastically reduced the growth rate
- more cells arrested in phase G1 compared with untreated control (DU-145 cells): about 30%
